These results are taken from ChEMBL document CHEMBL5247593, “Novel heterocyclic hydroxamates as inhibitors of the mycobacterial zinc metalloprotease Zmp1 to probe its mechanism of function” (Eur J Med Chem, 2022).

The subject of this assay is Mycobacterium tuberculosis variant bovis. Kind of assay: Antimycobacterial activity against Mycobacterium bovis ATCC 35734 assessed as inhibition of bacterial growth at 128 uM measured after 7 days by luminescence based analysis relative to control. The format is functional. The settings on record: ATCC 35734, 168 h, time 7 day.
As to `COC(=O)[C@H](CC(C)C)NC(=O)c1cccc(/C=C2\SC(=O)N(CC(=O)NOCc3ccccc3)C2=O)c1`, the inhibition at 128 µM was determined as 17.2%.
As to `COc1nc2ccc(Br)cc2cc1[C@@H](c1ccccc1)[C@@](O)(CCN(C)C)c1cccc2ccccc12` [BEDAQUILINE], the inhibition at 128 µM was found to be 100%.
Turning to `COC(=O)[C@@H](NC(=O)c1ccc(/C=C2\SC(=O)N(CC(=O)NOCc3ccccc3)C2=O)cc1)C(C)C`, the inhibition at 128 µM amounted to 11.2%.
With `CC(C)[C@H](NC(=O)[C@H](C)NC(=O)c1cn(CC(=O)NOCc2ccccc2)c2ccccc12)C(=O)O`, the inhibition at 128 µM was determined as 34.2%.
As to `NNC(=O)c1ccncc1` [ISONIAZID], the inhibition at 128 µM was determined as 100%.
With `C=CCONC(=O)Cn1cc(C(=O)N[C@@H](C)C(=O)N[C@H](C(=O)O)C(C)C)c2ccccc21`, the inhibition at 128 µM stood at 18.5%.
To `CC(C)[C@H](NC(=O)CNC(=O)c1ccn(CC(=O)NOCc2ccccc2)c1)C(=O)O` belongs 8.2%; to `C=CCONC(=O)Cn1cc(C(=O)NCC(=O)N[C@H](C(=O)O)C(C)C)c2ccccc21`, 15.8%.
Regarding `CC(C)C[C@H](NC(=O)CNC(=O)c1ccn(CC(=O)NOCc2ccccc2)c1)C(=O)O`, the inhibition at 128 µM stood at 9.7%.
As for `C=CCONC(=O)Cn1cc(C(=O)N[C@@H](C)C(=O)N[C@@H](CC(C)C)C(=O)O)c2ccccc21`, the inhibition at 128 µM was determined as 7.7%.
Consider `CO[C@H]1/C=C/O[C@@]2(C)Oc3c(C)c(O)c4c(O)c(c(/C=N/N5CCN(C)CC5)c(O)c4c3C2=O)NC(=O)/C(C)=C\C=C\[C@H](C)[C@H](O)[C@@H](C)[C@@H](O)[C@@H](C)[C@H](OC(C)=O)[C@@H]1C` [RIFAMPIN], for which the inhibition at 128 µM came out at 100%.
To `C=CCONC(=O)Cn1ccc(C(=O)N[C@@H](C)C(=O)N[C@H](C(=O)O)C(C)C)c1` belongs 9.3%.
Next, `CC(C)[C@H](NC(=O)CNC(=O)c1cn(CC(=O)NOCc2ccccc2)c2ccccc12)C(=O)O`: 10.3%; `C=CCONC(=O)CN1C(=O)S/C(=C\c2ccc(C(=O)N[C@H](C(=O)OC)C(C)C)cc2)C1=O`: 10.5%; `C=CCONC(=O)CN1C(=O)S/C(=C\c2cccc(C(=O)N[C@@H](CC(C)C)C(=O)OC)c2)C1=O`: 9.7%.
On to `CC(C)C[C@H](NC(=O)[C@H](C)NC(=O)c1ccn(CC(=O)NOCc2ccccc2)c1)C(=O)O`, for which the inhibition at 128 µM stood at 25.2%.
As for `CC(C)C[C@H](NC(=O)[C@H](C)NC(=O)c1cn(CC(=O)NOCc2ccccc2)c2ccccc12)C(=O)O`, the inhibition at 128 µM was 7.2%.
Turning to `C=CCONC(=O)CN1C(=O)S/C(=C\c2ccc(C(=O)N[C@@H](CC(C)C)C(=O)OC)cc2)C1=O`, the inhibition at 128 µM was 11.3%.
`C=CCONC(=O)Cn1cc(C(=O)NCC(=O)N[C@@H](CC(C)C)C(=O)O)c2ccccc21`: the inhibition at 128 µM worked out at 18.3%.
As to `C=CCONC(=O)CN1C(=O)S/C(=C\c2cccc(C(=O)N[C@H](C(=O)OC)C(C)C)c2)C1=O`, the inhibition at 128 µM worked out at 9.8%.
Take `COC(=O)[C@H](CC(C)C)NC(=O)c1ccc(/C=C2\SC(=O)N(CC(=O)NOCc3ccccc3)C2=O)cc1`: the inhibition at 128 µM came out at 14.6%.
In the case of `CC(C)[C@H](NC(=O)[C@H](C)NC(=O)c1ccn(CC(=O)NOCc2ccccc2)c1)C(=O)O`, the inhibition at 128 µM worked out at 10.2%.
For `CC(C)C[C@H](NC(=O)CNC(=O)c1cn(CC(=O)NOCc2ccccc2)c2ccccc12)C(=O)O`, the inhibition at 128 µM worked out at 33.7%.
Turning to `C=CCONC(=O)Cn1ccc(C(=O)NCC(=O)N[C@@H](CC(C)C)C(=O)O)c1`, the inhibition at 128 µM is 5.2%.
To `COC(=O)[C@@H](NC(=O)c1cccc(/C=C2\SC(=O)N(CC(=O)NOCc3ccccc3)C2=O)c1)C(C)C` belongs 7.2%; to `C=CCONC(=O)Cn1ccc(C(=O)N[C@@H](C)C(=O)N[C@@H](CC(C)C)C(=O)O)c1`, 7.3%.
